# Results from patent US5240961A, “Method of treating reduced insulin-like growth factor and bone loss associated with aging” (priority 1992, dated 1993).
# Several values for one entry are separate records, joined by “and”; a condition that tells them apart may be missing. Identical values can stand only once. Entries after “also recorded” stand apart in the source; their conditions may differ. Like-named read-outs stand apart in the source and are kept apart here.
# How the values were obtained:
# [1] = tested on: serum osteocalcin; experiment: Osteocalcin response to L-carnitine in aged mice; type: in vivo, mouse (BALB/c)
# Experimental: (§1) The present invention is further explained by the following examples which should not be construed by way of limiting the scope of the present invention. In the following examples, serum carnitine levels were determined by the method of R. Parvin et al., Anal. Biochem., vol. 79 (1979) pp. 190-201. Serum IGF-1 concentrations were measured by immunoradiometric assay, for example, by IRMA Kit available from Diagnostic Systems Laboratories, Inc., Webster, Texas. Serum osteocalcin levels were measured according to the method of Grunaberg et al., Meth. Enzymology, vol 107 (1984) 516, and which is embodied in an osteocalcin kit available from Biomedical Technologies, Inc., Stoughton, Mass. All mice used in the animal studies were BALB/c strain which is commercially available.
# Forty aged mice were separated into two groups. After an initial acclimatizing period of one week, one group was fed a diet with L-carnitine supplementation for six weeks and the other was fed normal, unsupplemented feed (control). […] The average daily food for each mouse was determined by weighing the food initially placed in the food bin and weighing the remaining food. […] Mouse blood was sampled prior to beginning of the trial (pretreatment), at the end of three weeks, and at six weeks (posttreatment), and was evaluated for serum osteocalcin and carnitine levels.
# [2] = Serum carnitine levels in aged mice fed L-carnitine; type: in vivo, mouse (BALB/c); conditions: mouse, serum, po, 50 mg/kg/day, 50 mg/kg/day oral, six weeks
# Experimental: as §1
# (§2) Forty aged mice were separated into two groups. After an initial acclimatizing period of one week, one group was fed a diet with L-carnitine supplementation for six weeks and the other was fed normal, unsupplemented feed (control). Each mouse in the test group was fed a daily oral dose of L-carnitine of about 50 mg/kg of body weight. The average daily food for each mouse was determined by weighing the food initially placed in the food bin and weighing the remaining food. The feed was supplemented with L-carnitine so that each mouse in the test group consumed the test dose (50 mg/kg) of L-carnitine each day. Mouse blood was sampled prior to beginning of the trial (pretreatment), at the end of three weeks, and at six weeks (posttreatment), and was evaluated for serum osteocalcin and carnitine levels.
# [3] = tested on: serum carnitine; experiment: as above; type: in vivo, mouse (BALB/c); conditions: 50 mg/kg/day
# Experimental: as §1, §2
# [4] = tested on: serum osteocalcin; experiment: Osteocalcin response to L-carnitine in young mice; type: in vivo, mouse (BALB/c)
# Experimental: as §1
# (§3) Similar tests were performed on six young mice, i.e., 2 months 5 months of age. One group (n=3) was fed a diet with L-carnitine supplementation for three months, the other (n=3) was fed normal, unsupplemented feed (control). Each mouse in the test group was fed a daily oral dose of L-carnitine of about 50 mg/kg of body weight. Mouse blood was sampled prior to beginning of the trial (pretreatment) i.e., at two months of age, and at 5 months of age, and was evaluated for serum osteocalcin and carnitine levels.
# [5] = Serum carnitine levels in young mice fed L-carnitine; type: in vivo, mouse (BALB/c); conditions: mouse, po, 50 mg/kg/day, 50 mg/kg/day oral
# Experimental: as §1, §3
# [6] = tested on: serum osteocalcin; experiment: Comparative effects of L-carnitine, acetyl carnitine and γ-butyrobetaine on serum osteocalcin in adult mice; type: in vivo, mouse (BALB/c male); conditions: for Osteocalcin: actual intake estimated about half
# Experimental: as §1
# (§4) Tests were performed to compare the effects on serum osteocalcin of diet supplementation with L-carnitine, its precursor, γ-butyrobetaine (available from Aldrich Chemical Co.) and one of its metabolites, acetylcarnitine (available from Life Science Resources, Milwaukee, Wis. 53223). Twenty adult mice, i.e., three months of age, (BALB/c male mice) were divided into seven groups. Each of the groups was fed diets as indicated hereinbelow for twelve weeks. One group (n=3) was fed a diet with L-carnitine supplementation at a dose of 50 mg/kg of body weight each day, while the second group (n=3) was fed L-carnitine at a daily dose of about 100 mg/kg. The third group (n=2) was fed a diet with acetylcarnitine supplementation at a daily dose of 50 mg/kg, while the fourth group (n=3) was fed a daily dose of 100 mg/kg of this compound. The fifth group (n=2) was fed a daily dose of 50 mg/kg of γ-butyrobetaine supplementation,while the sixth group was fed a daily dose of 100 mg/kg of γ-butyrobetaine. The seventh group (n=4) was fed normal, unsupplemented feed (control). Mouse blood was sampled prior to beginning of the trial (pretreatment), at six weeks, and at the end of the trial (twelve weeks). The samples were evaluated for serum osteocalcin levels at six and twelve weeks. Total carnitine was determined at twelve weeks.
# [7] = Serum carnitine at 12 weeks in adult mice fed L-carnitine, acetyl carnitine or γ-butyrobetaine; set-up: species or system mouse (BALB/c male); conditions: mouse, in vivo, po, Serum carnitine
# Experimental: as §1, §4
# [8] = tested on: serum IGF-1; experiment: IGF-1 response to L-carnitine supplementation in healthy adults over 60 (Example 4); type: in vivo, human; conditions: three months
# Experimental: as §1
# Seven adults from Example 3 agreed to receive a daily dosage of L-carnitine of 2 g/day, self-administered orally, for three months. Doses were administered four times daily, and each dose consisted of two 250 mg tablets. Of the seven individuals, two individuals dropped out of the study due to unrelated illness; thus, five remained in the study to completion. The following were evaluated by pretreatment and posttreatment comparisons: serum carnitine and serum IGF-1 by known methods, and bone mineral contents by bone scan of thoracic region, i.e., thoracic vertebrae, on a NORLAND scanner.
# [9] = Serum carnitine after oral L-carnitine, double-blind study in patients over 60 (Example 5); type: in vivo, human; conditions: human, serum, po, 2 g/day
# Experimental: as §1
# (§5) Nineteen patients (over age 60) were enrolled in a preliminary double-blindstudy to establish the effect of oral L-carnitine treatment on serum IGF-1 and osteocalcin levels. Baseline, i.e., pretreatment, levels of serum IGF-1, osteocalcin and carnitine were measured by known methods. The patients were divided into two groups, control (n=9; subjects 001-009 in Table 5 below) and treatment (n=10; subjects 010-019 in Table 5 below). The treatment group received a daily dosage of 2 g of L-carnitine orally, self-administered, in four separate doses of two 250 mg tablets taken four times per day, for twelve weeks. The control group were given placebo, e.g., simple sugar. Serum samples were drawn every four weeks, and serum carnitine, IGF-1 and osteocalcin were determined.
# [10] = tested on: serum carnitine; experiment: as above; type: in vivo, human; conditions: individual subjects 010-019, 2 g/day oral
# Experimental: as §1, §5
# [11] = read-out: Serum Carnitine, Free
# [12] = read-out: Serum Carnitine, Total
structure (smiles),measurement,setting,value
C[N+](C)(C)C[C@H](O)CC(=O)[O-] [L-carnitine],Osteocalcin,"[1]; aged mice (18 months), 50 mg/kg/day oral in feed, six weeks",29.6 ± 3.6 ng/mL
same,"significance of difference in osteocalcin, treated vs control (p, student's t test)","[1]; aged mice, 50 mg/kg/day",≤ 0.05
same,concentration at 1008 h,[2]; [11],57 ± 9.7 µM
same,concentration at 1008 h,[2]; [12],80.2 ± 9.5 µM
same,carnitine levels vs control group,[3],higher carnitine levels than the control group
same,Osteocalcin,"[4]; 5 mos., 50 mg/kg/day oral for three months",256 ng/mL
same,osteocalcin vs control,"[4]; five months, 50 mg/kg/day",maintained a higher level of osteocalcin at five months
same,concentration at 2190 h,[5]; [11],60.2 µM
same,concentration at 2190 h,[5]; [12],84.2 µM
same,"significance of difference in osteocalcin vs control (p, student's t test)",[6]; 50 mg/kg/day,< 0.01
same,Osteocalcin,"[6]; 50 mg/kg/day, 6 wks",151 ng/mL and 151 ± 4 ng/mL
same,Osteocalcin,"[6]; 50 mg/kg/day, 12 wks",153 ng/mL
same,"significance of difference in osteocalcin vs control (p, student's t test)",[6]; 100 mg/kg/day,< 0.05
same,Osteocalcin,"[6]; 100 mg/kg/day, 6 wks",199 ng/mL and 199 ± 7 ng/mL
same,Osteocalcin,"[6]; 100 mg/kg/day, 12 wks",115 ng/mL
same,effect on osteocalcin,"[6]; adult mice, 50 and 100 mg/kg/day",stimulate osteocalcin production in adult mice; also recorded: maintained osteocalcin blood levels
same,concentration at 2016 h,"[7]; 50 mg/kg/day, Free",52.1 µM
same,concentration at 2016 h,"[7]; 50 mg/kg/day, Total",66 µM
same,concentration at 2016 h,"[7]; 100 mg/kg/day, Free",41.6 µM
same,concentration at 2016 h,"[7]; 100 mg/kg/day, Total",59.5 µM
same,"significance of IGF-1 increase (p, paired comparisons)",[8]; 2 g/day oral,≤ 0.05
same,"IGF-1, posttreatment","[8]; individual subjects 001-005, 2 g/day oral",396 ng/mL and 280 ng/mL and 148 ng/mL and 270 ng/mL and 264 ng/mL
same,mean IGF-1 after treatment,"[8]; mean, 2 g/day oral, pretreatment mean 170",272 ng/mL
same,concentration at 1344 h,"[9]; individual subjects 010-019, 2 g/day oral, 8 weeks, read-out: Serum carnitine, Free",65.4 µM
same,concentration at 1344 h,"[9]; individual subjects 010-019, 2 g/day oral, 8 weeks, read-out: Serum carnitine, Total",88 µM
same,concentration at 2016 h,"[9]; individual subjects 010-019, 2 g/day oral, 12 weeks, read-out: Serum carnitine, Free",72.6 µM
same,concentration at 2016 h,"[9]; individual subjects 010-019, 2 g/day oral, 12 weeks, read-out: Serum carnitine, Total",101 µM
same,concentration at 1344 h,"[9]; treatment group average, eight weeks, read-out: average total carnitine",75.6 µM
same,concentration at 672 h,"[9]; treatment group average, four weeks, read-out: average total carnitine",78.4 µM
same,concentration at 2016 h,"[9]; treatment group average, twelve weeks, read-out: average total carnitine",81.5 µM
same,concentration,"[10]; 4 weeks, 40320 min, read-out: Serum carnitine, Free",54.4 µM and 61.6 µM and 36.6 µM and 66.6 µM and 67.4 µM and 52 µM and 67.2 µM and 40.4 µM and 61.2 µM and 85 µM
same,concentration,"[10]; 4 weeks, 40320 min, read-out: Serum carnitine, Total",71.6 µM and 72.5 µM and 52.4 µM and 80.3 µM and 120 µM and 67 µM and 84.4 µM and 54.3 µM and 73 µM and 108 µM
same,concentration,"[10]; 8 weeks, 80640 min, read-out: Serum carnitine, Free",58.6 µM and 52.6 µM and 65.2 µM and 74.6 µM and 57 µM and 67.4 µM and 39.4 µM and 61.2 µM
same,concentration,"[10]; 8 weeks, 80640 min, read-out: Serum carnitine, Total",76.6 µM and 64.8 µM and 72.5 µM and 91.7 µM and 67.9 µM and 83.4 µM and 51.5 µM and 83.9 µM
same,concentration,"[10]; 12 weeks, 120960 min, read-out: Serum carnitine, Free",61 µM and 49.6 µM and 70 µM and 55.8 µM and 69.6 µM
same,concentration,"[10]; 12 weeks, 120960 min, read-out: Serum carnitine, Total",79.3 µM and 62 µM and 75.7 µM and 70.2 µM and 94.4 µM
